Data published in ChEMBL document CHEMBL1938230, “6-Position optimization of tricyclic 4-quinolone-based inhibitors of glycogen synthase kinase-3β: discovery of nitrile derivatives with picomolar potency” (Bioorg Med Chem Lett, 2012).

Experiments:
[1] = biological target: Phosphatidylinositol 3-kinase catalytic subunit type 3 (Homo sapiens) (UniProt Q8NEB9); test: Inhibition of human PIK3C3 in HL-60 cells lysate assessed as reduction of labeling of acyl-phosphate ATP probe at 100 nM; type: cell-free
[2] = biological target: Serine/threonine-protein kinase mTOR (Homo sapiens) (UniProt P42345); test: Inhibition of human mTOR in HL-60 cells lysate assessed as reduction of labeling of acyl-phosphate ATP probe at 100 nM; type: cell-free
HL-60 = test: Inhibition of human MAP3K5/MAP3K6/MAP3K7 in HL-60 cells lysate assessed as reduction of labeling of acyl-phosphate ATP probe at 100 nM
[3] = biological target: T1, Phosphatidylinositol 4,5-bisphosphate 3-kinase catalytic subunit delta isoform (Homo sapiens) (UniProt O00329); test: Inhibition of human PIK3CD in HL-60 cells lysate assessed as reduction of labeling of acyl-phosphate ATP probe at 100 nM; type: cell-free
T1 sequence (whole entry): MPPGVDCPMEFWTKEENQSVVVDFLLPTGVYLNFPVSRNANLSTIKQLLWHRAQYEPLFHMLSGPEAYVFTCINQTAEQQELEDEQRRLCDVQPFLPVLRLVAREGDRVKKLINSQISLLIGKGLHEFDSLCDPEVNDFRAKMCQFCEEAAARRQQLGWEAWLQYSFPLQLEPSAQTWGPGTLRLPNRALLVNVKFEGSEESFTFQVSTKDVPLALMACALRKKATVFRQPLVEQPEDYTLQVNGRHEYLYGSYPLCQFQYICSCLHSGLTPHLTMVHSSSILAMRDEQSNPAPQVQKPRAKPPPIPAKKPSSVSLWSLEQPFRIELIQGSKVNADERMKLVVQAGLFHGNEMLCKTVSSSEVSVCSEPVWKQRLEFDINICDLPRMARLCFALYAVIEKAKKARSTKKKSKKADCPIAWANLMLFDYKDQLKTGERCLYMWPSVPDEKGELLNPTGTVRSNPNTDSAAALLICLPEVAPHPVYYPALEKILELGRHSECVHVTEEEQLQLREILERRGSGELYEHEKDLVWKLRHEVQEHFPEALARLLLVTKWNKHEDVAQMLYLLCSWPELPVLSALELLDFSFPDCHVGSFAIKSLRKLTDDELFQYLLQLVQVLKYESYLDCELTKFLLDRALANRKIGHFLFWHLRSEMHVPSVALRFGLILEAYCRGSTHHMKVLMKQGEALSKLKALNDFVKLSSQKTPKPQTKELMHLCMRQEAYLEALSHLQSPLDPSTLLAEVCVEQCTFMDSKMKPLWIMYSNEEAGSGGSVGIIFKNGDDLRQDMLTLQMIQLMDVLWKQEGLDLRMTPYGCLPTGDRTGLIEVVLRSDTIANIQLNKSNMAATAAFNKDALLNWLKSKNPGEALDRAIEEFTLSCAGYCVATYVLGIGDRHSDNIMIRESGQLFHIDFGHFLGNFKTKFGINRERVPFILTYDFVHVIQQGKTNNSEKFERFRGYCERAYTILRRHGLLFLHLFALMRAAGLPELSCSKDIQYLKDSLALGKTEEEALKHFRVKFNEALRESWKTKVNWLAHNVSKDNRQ

[4] = biological target: Tyrosine-protein kinase Fer (Homo sapiens) (UniProt P16591); test: Inhibition of human FER in HL-60 cells lysate assessed as reduction of labeling of acyl-phosphate ATP probe at 100 nM; type: cell-free
Sequence of Tyrosine-protein kinase Fer (Homo sapiens) (P16591 whole entry, looked up): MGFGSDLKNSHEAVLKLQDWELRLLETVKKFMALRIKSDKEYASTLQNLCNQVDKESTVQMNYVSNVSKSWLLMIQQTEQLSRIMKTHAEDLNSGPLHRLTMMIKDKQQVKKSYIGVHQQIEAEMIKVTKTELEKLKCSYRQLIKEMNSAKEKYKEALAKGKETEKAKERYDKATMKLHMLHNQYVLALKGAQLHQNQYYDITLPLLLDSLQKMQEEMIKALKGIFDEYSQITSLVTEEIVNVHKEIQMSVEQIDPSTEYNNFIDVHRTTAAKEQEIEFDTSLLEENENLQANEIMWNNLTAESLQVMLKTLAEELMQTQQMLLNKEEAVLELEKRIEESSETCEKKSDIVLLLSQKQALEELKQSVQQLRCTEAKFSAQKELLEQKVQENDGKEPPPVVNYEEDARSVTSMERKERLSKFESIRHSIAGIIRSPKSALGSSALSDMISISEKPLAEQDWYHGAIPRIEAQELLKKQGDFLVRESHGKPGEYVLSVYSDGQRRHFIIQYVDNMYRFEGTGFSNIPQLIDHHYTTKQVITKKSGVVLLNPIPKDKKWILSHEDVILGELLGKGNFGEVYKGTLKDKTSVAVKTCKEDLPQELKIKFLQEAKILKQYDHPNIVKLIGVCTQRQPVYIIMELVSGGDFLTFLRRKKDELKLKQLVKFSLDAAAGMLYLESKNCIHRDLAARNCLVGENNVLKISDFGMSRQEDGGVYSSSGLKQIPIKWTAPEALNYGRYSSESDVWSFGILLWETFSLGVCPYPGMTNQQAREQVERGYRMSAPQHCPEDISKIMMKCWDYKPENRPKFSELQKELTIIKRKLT

[5] = biological target: Serine/threonine-protein kinase 24 (Homo sapiens) (UniProt Q9Y6E0); test: Inhibition of human MST3 in HL-60 cells lysate assessed as reduction of labeling of acyl-phosphate ATP probe at 100 nM; type: cell-free
Sequence of Serine/threonine-protein kinase 24 (Homo sapiens) (Q9Y6E0 whole entry, looked up): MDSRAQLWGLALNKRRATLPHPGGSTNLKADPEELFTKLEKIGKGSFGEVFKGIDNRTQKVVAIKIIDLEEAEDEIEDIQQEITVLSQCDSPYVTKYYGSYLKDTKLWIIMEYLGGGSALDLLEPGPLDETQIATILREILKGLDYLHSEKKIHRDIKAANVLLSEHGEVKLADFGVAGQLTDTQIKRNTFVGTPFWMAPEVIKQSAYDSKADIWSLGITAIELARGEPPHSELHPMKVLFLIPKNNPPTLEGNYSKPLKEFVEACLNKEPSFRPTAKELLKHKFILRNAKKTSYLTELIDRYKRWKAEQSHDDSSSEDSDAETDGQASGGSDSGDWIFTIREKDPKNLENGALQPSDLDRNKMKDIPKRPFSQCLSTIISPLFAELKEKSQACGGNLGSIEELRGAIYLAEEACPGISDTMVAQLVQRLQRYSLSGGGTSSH

[6] = biological target: Tyrosine-protein kinase ABL (Homo sapiens) (UniProt P00519+P42684); test: Inhibition of human ABL/ARG in HL-60 cells lysate assessed as reduction of labeling of acyl-phosphate ATP probe at 100 nM; type: cell-free
Sequence of Tyrosine-protein kinase ABL (Homo sapiens) (P00519 whole entry, looked up): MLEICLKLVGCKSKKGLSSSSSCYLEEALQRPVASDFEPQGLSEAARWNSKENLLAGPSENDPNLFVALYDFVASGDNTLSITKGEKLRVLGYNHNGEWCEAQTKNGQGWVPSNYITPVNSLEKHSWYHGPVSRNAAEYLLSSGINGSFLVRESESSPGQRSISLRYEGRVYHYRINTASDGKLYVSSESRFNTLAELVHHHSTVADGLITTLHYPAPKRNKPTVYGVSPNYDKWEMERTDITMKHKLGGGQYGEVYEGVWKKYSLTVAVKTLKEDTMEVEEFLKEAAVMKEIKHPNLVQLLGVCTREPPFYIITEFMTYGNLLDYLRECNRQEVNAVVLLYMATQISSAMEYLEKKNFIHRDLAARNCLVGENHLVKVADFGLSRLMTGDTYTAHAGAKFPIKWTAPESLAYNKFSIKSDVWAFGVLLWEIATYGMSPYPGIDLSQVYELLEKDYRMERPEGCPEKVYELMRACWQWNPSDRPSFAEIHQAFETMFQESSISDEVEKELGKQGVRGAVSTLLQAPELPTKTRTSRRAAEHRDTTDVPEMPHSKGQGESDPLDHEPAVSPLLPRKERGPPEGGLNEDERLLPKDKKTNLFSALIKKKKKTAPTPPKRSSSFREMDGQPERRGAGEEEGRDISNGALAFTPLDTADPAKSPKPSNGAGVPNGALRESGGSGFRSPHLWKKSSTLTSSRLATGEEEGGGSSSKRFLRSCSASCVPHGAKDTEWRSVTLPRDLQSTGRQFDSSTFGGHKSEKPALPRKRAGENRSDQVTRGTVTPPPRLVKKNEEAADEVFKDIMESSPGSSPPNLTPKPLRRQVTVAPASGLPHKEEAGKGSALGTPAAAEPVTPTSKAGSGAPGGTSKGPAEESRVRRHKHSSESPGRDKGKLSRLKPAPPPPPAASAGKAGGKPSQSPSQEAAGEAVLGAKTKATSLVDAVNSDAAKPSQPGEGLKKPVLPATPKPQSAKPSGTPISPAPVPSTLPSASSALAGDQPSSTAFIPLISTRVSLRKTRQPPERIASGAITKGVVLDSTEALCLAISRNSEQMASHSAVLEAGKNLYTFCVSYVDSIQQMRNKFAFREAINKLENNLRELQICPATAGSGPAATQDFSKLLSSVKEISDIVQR
Sequence of Tyrosine-protein kinase ABL (Homo sapiens) (P42684 whole entry, looked up): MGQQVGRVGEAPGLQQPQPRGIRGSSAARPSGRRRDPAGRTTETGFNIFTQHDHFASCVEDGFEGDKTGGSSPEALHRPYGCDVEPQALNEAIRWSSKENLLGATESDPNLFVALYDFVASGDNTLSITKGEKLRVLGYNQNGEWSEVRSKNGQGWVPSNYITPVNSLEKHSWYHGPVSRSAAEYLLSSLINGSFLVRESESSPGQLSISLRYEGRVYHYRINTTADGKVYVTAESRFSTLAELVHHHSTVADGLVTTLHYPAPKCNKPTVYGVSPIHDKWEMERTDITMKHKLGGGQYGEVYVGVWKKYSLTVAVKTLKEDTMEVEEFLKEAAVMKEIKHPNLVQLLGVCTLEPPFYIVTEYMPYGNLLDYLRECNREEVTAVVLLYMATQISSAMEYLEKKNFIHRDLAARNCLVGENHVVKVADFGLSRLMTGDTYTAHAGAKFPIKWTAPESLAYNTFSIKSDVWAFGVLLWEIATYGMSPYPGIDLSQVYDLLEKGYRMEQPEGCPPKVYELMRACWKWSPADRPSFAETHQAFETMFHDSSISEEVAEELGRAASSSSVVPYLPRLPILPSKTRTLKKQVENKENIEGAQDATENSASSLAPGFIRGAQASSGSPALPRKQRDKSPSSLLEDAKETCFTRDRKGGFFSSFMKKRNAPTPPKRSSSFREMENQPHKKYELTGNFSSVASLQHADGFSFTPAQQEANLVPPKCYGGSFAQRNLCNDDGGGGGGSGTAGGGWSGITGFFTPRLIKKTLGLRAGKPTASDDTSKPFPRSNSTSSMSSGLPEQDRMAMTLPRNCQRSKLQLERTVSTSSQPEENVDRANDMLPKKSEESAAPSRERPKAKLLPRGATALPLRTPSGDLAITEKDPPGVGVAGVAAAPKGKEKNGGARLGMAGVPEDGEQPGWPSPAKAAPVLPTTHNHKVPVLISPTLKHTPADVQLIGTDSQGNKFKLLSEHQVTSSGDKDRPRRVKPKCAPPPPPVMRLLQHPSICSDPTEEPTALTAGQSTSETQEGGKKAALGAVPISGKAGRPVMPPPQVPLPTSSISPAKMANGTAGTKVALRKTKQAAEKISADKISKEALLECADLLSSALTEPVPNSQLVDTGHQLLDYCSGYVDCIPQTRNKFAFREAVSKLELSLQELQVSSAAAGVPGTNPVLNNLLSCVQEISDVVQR

[7] = biological target: Mitogen-activated protein kinase 1 (Homo sapiens) (UniProt P28482); test: Inhibition of human Erk2 in HL-60 cells lysate assessed as reduction of labeling of acyl-phosphate ATP probe at 100 nM; type: cell-free
[8] = biological target: Mitogen-activated protein kinase 3 (Homo sapiens) (UniProt P27361); test: Inhibition of human Erk1 in HL-60 cells lysate assessed as reduction of labeling of acyl-phosphate ATP probe at 100 nM; type: cell-free
Sequence of Mitogen-activated protein kinase 3 (Homo sapiens) (P27361 whole entry): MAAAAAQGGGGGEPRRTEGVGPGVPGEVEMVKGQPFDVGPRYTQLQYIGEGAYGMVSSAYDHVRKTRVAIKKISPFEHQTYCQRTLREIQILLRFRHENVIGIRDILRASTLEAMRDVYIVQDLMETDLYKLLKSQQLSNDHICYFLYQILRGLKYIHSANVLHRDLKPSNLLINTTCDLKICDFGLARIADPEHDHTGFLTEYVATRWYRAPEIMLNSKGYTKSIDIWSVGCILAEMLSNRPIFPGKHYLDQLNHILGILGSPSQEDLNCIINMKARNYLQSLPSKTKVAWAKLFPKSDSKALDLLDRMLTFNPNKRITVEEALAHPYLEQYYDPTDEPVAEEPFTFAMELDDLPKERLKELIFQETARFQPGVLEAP

[9] = biological target: Cyclin-dependent kinase 9 (Homo sapiens) (UniProt P50750); test: Inhibition of human CDK9 in HL-60 cells lysate assessed as reduction of labeling of acyl-phosphate ATP probe at 100 nM; type: cell-free
[10] = biological target: Phosphatidylinositol 4,5-bisphosphate 3-kinase catalytic subunit gamma isoform (Homo sapiens) (UniProt P48736); test: Inhibition of human PIK3CG in HL-60 cells lysate assessed as reduction of labeling of acyl-phosphate ATP probe at 100 nM; type: cell-free
[11] = biological target: IKK epsilon/TBK1 (Homo sapiens) (UniProt Q14164+Q9UHD2); test: Inhibition of human IKKepsilon/TBK1 in HL-60 cells lysate assessed as reduction of labeling of acyl-phosphate ATP probe at 100 nM; type: cell-free
[12] = biological target: Mitogen-activated protein kinase kinase kinase 1 (Homo sapiens) (UniProt Q13233); test: Inhibition of human MAP3K1 in HL-60 cells lysate assessed as reduction of labeling of acyl-phosphate ATP probe at 100 nM; type: cell-free
[13] = biological target: Serine/threonine-protein kinase Nek7 (Homo sapiens) (UniProt Q8TDX7); test: Inhibition of human NEK7 in HL-60 cells lysate assessed as reduction of labeling of acyl-phosphate ATP probe at 100 nM; type: cell-free
[14] = biological target: Misshapen-like kinase 1 (Homo sapiens) (UniProt Q8N4C8); test: Inhibition of human ZC3/MINK in HL-60 cells lysate assessed as reduction of labeling of acyl-phosphate ATP probe at 100 nM; type: cell-free
[15] = biological target: Serine/threonine-protein kinase/endoribonuclease IRE1 (Homo sapiens) (UniProt O75460); test: Inhibition of human IRE1 in HL-60 cells lysate assessed as reduction of labeling of acyl-phosphate ATP probe at 100 nM; type: cell-free
[16] = biological target: Mitogen-activated protein kinase kinase kinase 11 (Homo sapiens) (UniProt Q16584); test: Inhibition of human MLK3 in HL-60 cells lysate assessed as reduction of labeling of acyl-phosphate ATP probe at 100 nM; type: cell-free
Sequence of Mitogen-activated protein kinase kinase kinase 11 (Homo sapiens) (Q16584 whole entry, looked up): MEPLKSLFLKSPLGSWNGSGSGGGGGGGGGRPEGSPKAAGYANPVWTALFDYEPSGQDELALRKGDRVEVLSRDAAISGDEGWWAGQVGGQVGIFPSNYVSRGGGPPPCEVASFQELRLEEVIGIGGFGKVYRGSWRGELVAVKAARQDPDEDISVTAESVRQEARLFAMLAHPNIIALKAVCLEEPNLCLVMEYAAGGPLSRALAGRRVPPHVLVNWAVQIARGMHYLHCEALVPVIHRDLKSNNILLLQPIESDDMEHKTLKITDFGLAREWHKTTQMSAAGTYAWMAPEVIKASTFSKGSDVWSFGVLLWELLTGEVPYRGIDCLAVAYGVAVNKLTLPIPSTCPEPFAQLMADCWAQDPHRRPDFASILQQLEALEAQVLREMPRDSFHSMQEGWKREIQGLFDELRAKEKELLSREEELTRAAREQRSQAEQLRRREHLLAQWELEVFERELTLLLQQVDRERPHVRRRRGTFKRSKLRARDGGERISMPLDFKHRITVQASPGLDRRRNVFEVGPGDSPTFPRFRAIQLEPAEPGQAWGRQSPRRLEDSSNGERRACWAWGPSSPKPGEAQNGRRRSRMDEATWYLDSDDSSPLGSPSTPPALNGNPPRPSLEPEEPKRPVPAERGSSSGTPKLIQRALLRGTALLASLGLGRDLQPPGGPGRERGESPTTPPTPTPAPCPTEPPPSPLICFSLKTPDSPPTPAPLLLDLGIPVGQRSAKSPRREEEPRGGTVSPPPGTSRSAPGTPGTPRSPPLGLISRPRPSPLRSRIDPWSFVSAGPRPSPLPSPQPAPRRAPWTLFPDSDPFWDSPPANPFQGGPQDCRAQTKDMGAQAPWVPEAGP

C[C@H]1COc2c(NCCCc3ccccn3)c(F)c(N)c3c(=O)c(C#N)cn1c23
< 35%: inhibition [1] | inhibition [2] | inhibition at 0.1 µM (HL-60) | inhibition [3] | inhibition [4] | inhibition [5] | inhibition [6] | inhibition [7] | inhibition [8] | inhibition [9] | inhibition [10] | inhibition [11] | inhibition [12] | inhibition [13] | inhibition [14] | inhibition [15] | inhibition [16]

C[C@H]1COc2c(NCCCc3ccccn3)c(F)c(N)c3c(=O)c(C(=O)O)cn1c23
< 35%: inhibition [1] | inhibition [2] | inhibition at 0.1 µM (HL-60) | inhibition [3] | inhibition [4] | inhibition [5] | inhibition [6] | inhibition [7] | inhibition [8] | inhibition [9] | inhibition [10] | inhibition [11] | inhibition [12] | inhibition [13] | inhibition [14] | inhibition [15] | inhibition [16]

C[C@H]1COc2c(NCCCn3cccn3)c(F)c(N)c3c(=O)c(C(=O)O)cn1c23
< 35%: inhibition [1] | inhibition [2] | inhibition at 0.1 µM (HL-60) | inhibition [3] | inhibition [4] | inhibition [5] | inhibition [6] | inhibition [7] | inhibition [8] | inhibition [9] | inhibition [10] | inhibition [11] | inhibition [12] | inhibition [13] | inhibition [14] | inhibition [15] | inhibition [16]

C[C@H]1COc2c(NCCCn3cccn3)c(F)c(N)c3c(=O)c(C#N)cn1c23
< 35%: inhibition [1] | inhibition [2] | inhibition at 0.1 µM (HL-60) | inhibition [3] | inhibition [4] | inhibition [5] | inhibition [6] | inhibition [7] | inhibition [8] | inhibition [9] | inhibition [10] | inhibition [11] | inhibition [12] | inhibition [13] | inhibition [14] | inhibition [15] | inhibition [16]
